# Paper PMC5053593, “Tetrahydrobiopterin Supplementation: Elevation of Tissue Biopterin Levels Accompanied by a Relative Increase in Dihydrobiopterin in the Blood and the Role of Probenecid-Sensitive Uptake in Scavenging Dihydrobiopterin in the Liver and Kidney of Rats” (PLoS ONE, 2016)
# Structures can show the parent of a compound that is named as a salt. Where two headings read alike, the source gives them in different places.
# Tests used:
# [1] = rat, in vivo
# Description: (§1) In the following sample acquisition, special care to ensure minimal oxidation of BH4 was taken throughout the following procedure. In brief, the abdomen was opened and cannulae were set in place for collecting bile and urine. The blood samples were drawn from the tail vein into a heparin-coated capillary containing a solution of 0.1 M ascorbic acid (less than 5% by volume), and they were then subjected to differential iodine oxidation for BP determination. The urine was collected at intervals from the bladder through an indwelling needle connected to an airtight syringe in which the dead space had been filled with saline containing 50 mM each of ascorbic acid and EDTA (pH 6.8). The urine was immediately mixed with 9 volumes of 10 mM HCl containing 5 mM antioxidant. The aliquots were then subjected to quantitation of BP and creatinine. BP excretion was expressed as BP/creatinine (μmol/mg creatinine) based on the BP concentration (nmol/mL) divided by the time-matched creatinine level (μg/mL). In calculating the cumulative total, the amounts of BP in each fraction were added. Calculations were based on the BP concentration (nmol/mL) multiplied by the respective urine volume (mL) produced between each sampling time point regardless of the creatinine concentration. The bile was also collected from individual rats through a cannula in the bile duct and was immediately subjected to BP determination. The cumulative BP amount was calculated by adding up all samples measured.
# (§2) Biopterin was determined essentially according to Fukushima and Nixon and modified as described previously. Animal tissues contain at least 4 chemical species of the reduced biopterin family; BH4-4a-carbinolamine (or 4a-hydroxy-tetrahydrobiopterin), quinonoid dihydrobiopterin and 7,8-dihydrobiopterin as well as BH4. The Fukushima and Nixon method includes tissue homogenization and extraction of pterin compounds followed by measurement of amount of fully oxidized biopterin after differential iodine oxidation under acid and alkaline conditions. With their method, the biopterin quantity remaining after the acid-oxidation was taken as the total biopterin (BP = “BH4” + “BH2” + “oxidized biopterin”) and that which remained after the alkaline-oxidation, as 7,8-dihydrobiopterin (BH2) plus oxidized biopterin. […] Accordingly, in this study, the biopterin amount measured after the acid iodine oxidation was taken as the sum of “BH4” and “BH2” (“BP” = “BH2” + “BH4”), and that after the alkaline oxidation, as the amount of “BH2”. The difference was therefore taken as the “BH4” amount. The BH4 fraction (BH4%; the percentage of BH4 in BP) was calculated for each individual sample. The amounts of BH4 and BH2 were calculated based on molecular weights of 241 g/mol and 239 g/mol, respectively.
# The urinary creatinine concentration was measured using a creatininase-HMMPS method according to the manufacturer’s instructions (L-type Creatinine M; Wako Pure Chemical Industries, Osaka, Japan).
# Data were expressed as means ±S.E. The statistical significance of two groups with non-repeated determination was analyzed by Student’s t-test. The significance of difference between determinations at different times with individual animal groups was analyzed by the Paired t-test. Significance of difference between three groups was analyzed by Tukey’s test. All the statistical analyses were performed with Pharmaco Basic Ver.15.0.1 (Scientist Co. Ltd., Tokyo). Using results of pterin kinetics, exponential least square approximation was performed with Excel software using Microsoft Office for Mac.
# [2] = both, Sprague-Dawley, rat, in vivo
# Description: as §1
# Biopterin was determined essentially according to Fukushima and Nixon and modified as described previously. […] With their method, the biopterin quantity remaining after the acid-oxidation was taken as the total biopterin (BP = “BH4” + “BH2” + “oxidized biopterin”) and that which remained after the alkaline-oxidation, as 7,8-dihydrobiopterin (BH2) plus oxidized biopterin. […] Accordingly, in this study, the biopterin amount measured after the acid iodine oxidation was taken as the sum of “BH4” and “BH2” (“BP” = “BH2” + “BH4”), and that after the alkaline oxidation, as the amount of “BH2”. […] The BH4 fraction (BH4%; the percentage of BH4 in BP) was calculated for each individual sample. The amounts of BH4 and BH2 were calculated based on molecular weights of 241 g/mol and 239 g/mol, respectively.
# Data were expressed as means ±S.E. The statistical significance of two groups with non-repeated determination was analyzed by Student’s t-test. The significance of difference between determinations at different times with individual animal groups was analyzed by the Paired t-test. Significance of difference between three groups was analyzed by Tukey’s test. […]
# [3] = both, Sprague-Dawley, rat, in vivo; remark: listed apart in the source
# Method: Each blood sample was divided into three portions; one served as a “whole blood” specimen, the second was for the hematocrit determination, and the third was centrifuged (10,000 rpm, 4°C, 5 min) to separate red blood cells (RBCs) from the plasma. The whole blood, plasma, and RBCs were separately subjected to differential iodine oxidation for the BP determination described below. The results were expressed as the amount of BP per unit volume of the original blood sample (plasma + RBC, mL) based on the hematocrit value. The kidneys, liver, and whole brain were removed without prior perfusion, rinsed with saline, blotted, weighed, frozen in liquid nitrogen, and then stored at -80°C until BP determination. BP carryover with the blood was ignored in the liver and kidney. However, for the brain, the BP carryover was estimated using an average blood inclusion of 1.2% (v/w), which was determined by a comparison of the heme content of the blood and brain homogenates based on light absorbance at 415 nm.
# as §2
# [4] = parameters: method as in PMID 22318121, PMID 22318121; settings: cited from earlier work
structure (smiles),measurement,setting,value
"C[C@H](O)[C@H](O)[C@H]1CNc2nc(N)[nH]c(=O)c2N1 [6RBH4, (6R)-L-erythro-5,6,7,8-tetrahydrobiopterin dihydrochloride]",Urinary BP outflow,"[1]; both, Sprague-Dawley",1840 ± 250 nmol
same,Urinary BP outflow as % of gross outflow obtained by 270 min,"[1]; both, Sprague-Dawley",about 58%
same,Urinary BH4%,"[1]; both, Sprague-Dawley, 30 min",95 ± 1%
same,Urinary BH4%,"[1]; both, Sprague-Dawley, 90 min",87 ± 2%
same,Urinary BH4%,"[1]; both, Sprague-Dawley, 240 min",ca. 94%
same,Creatinine-based urinary BP AUC0–270,"[1]; iv, 5 mg/kg",731 (μmol/mg Cr)•min
same,Biliary BH4%,[2],~95%
same,"Biliary BP outflow fit, rate constant k",[2],0.007 min⁻¹
same,C0,[2],47.2 µM
same,Cumulative excretion of BP in the bile as % of that in the urine,[2],about 3%
same,BH4% in blood,[3]; 30 min,93.9 ±0.6%
same,BH4% in kidney,[3]; 30 min,98.0 ±0.2%
same,BP (nmol) per organ,[3]; 30 min,76.8 nmol
same,"BP (nmol), sub-total of liver, blood, kidneys, brain",[3]; 30 min,515 nmol
same,Brain BP increase over untreated rats,[3]; 30 min,about 43%
same,Kidney BP over the initial value,[3]; 30 min,58 fold
same,Liver BP content,[3]; 30 min,53.3 nmol/g
same,Liver BP over the initial value,[3]; 30 min,9.1 fold
same,BH4% in blood,[3]; 120 min,96.2 ±0.1%
same,BH4% in liver,[3]; 120 min,98.8 ±0.1%
same,BP (nmol) per organ,[3]; 120 min,39.5 nmol
same,"BP (nmol), sub-total of liver, blood, kidneys, brain",[3]; 120 min,325 nmol
same,"Urinary BP flow, glomerular filtration rate constant k",[4],0.013 min⁻¹
same,"Urinary BP flow, observed gross rate constant k",[4],0.043 min⁻¹
same,"Urinary BP flow, tubular secretion rate constant k",[4]; gross minus glomerular rate constant,0.030 min⁻¹
